Read-outs that look alike come from different tables or passages of the source. Marks after values point to notes of the source that are not given here.
Columns and labels:
[1] = system: TMD-8 cell line; assay: Inhibition assay of tumor cell activity (cell viability), TMD-8; type: cell-based, human; details: individual compound; for inhibition at 0.01 µM / inhibition at 0.1 µM / inhibition at 1 µM / inhibition at 10 µM / inhibition at 100 µM: Homo sapiens, TMD8, 48 h, read-out: Inh % on TMD-8 cell line (AVG); for Inh % on TMD-8 cell line (AVG): 48 h
Protocol: (§1) Inhibition Assay of Tumor Cell Activity:
(§2) Tumor cells (TMD-8, DoHH2 and WSU-DLCL2) were transferred and attached to 96-well plates. After one night, blank buffer and selected concentrations (0.01 nM-100 μM) of the test compound solution were added. After 48 hours incubation, CellTiter-Go was added to lyse the cells. Recording luminescent signal and calculate the percent inhibition of cell viability

[2] = system: TMD-8 lymphoma xenograft; assay: Inhibition of tumor growth in vivo, TMD-8 lymphoma xenograft SCID mouse model; details: for Antitumor effect (%): TMD-8, Oral, BID
Protocol: Inhibition Study of Tumor Growth In Vivo:
SCID mice or nude mice (weighing about 18 g at the beginning of the experiment) were randomly divided into groups by the software in order to achieve close average weights between groups and control the bias within the allowable range. The mice were injected BTK cell lines (TMD-8, WSU-DLCL2 and DoHH-2) for tumor formation. Inhibitors were administered orally once or twice a day, a total of 14 days, 21 days or 28 days. Body weights and tumor volume were recorded.
Xenograft Tumor Models Inoculated with TMD-8, or DoHH2, or WSU-DLCL2 Tumor Cell Lines:
TMD-8 is a sensitive human diffuse large B-cell lymphoma cell line, and DoHH2 is a more difficult to treat human follicular lymphoma cell line, while WSU-DLCL2 is a multi-drug resistant (MDR) human non-Hodgkin's lymphoma cell line. Drug combination therapies provide better efficacies in all three tumor models than single targeted agent alone.
The TMD-8, DoHH2, WSU-DLCL2 tumor cells were maintained in vitro as a suspension culture in RPMI-1640 medium supplemented with 10% heat inactivated fetal calf serum at 37° C. in an atmosphere of 5% CO2 in air. The tumor cells were routinely subcultured twice weekly. The cells growing in an exponential growth phase were harvested and counted for tumor inoculation. Each mouse was inoculated subcutaneously at the right flank with the tumor cells (10×10^6) in 0.2 ml of PBS with Matrigel (1:1) for tumor development. The treatments were started after the average tumor size reached approximately 100-200 mm^3. Each group consisted of 6-10 tumor-bearing mice. The testing article (vehicle, compound or combination) was orally administrated to the mice according to the predetermined doses for 14-days or 21-days. Animal body weight and tumor volume were measured every 2- or 3-days throughout the treatment.

[3] = system: resistant WSU-DLCL2 cell line; assay: Inhibition assay of tumor cell activity (cell viability), WSU-DLCL2; type: cell-based; details: Homo sapiens, WSUDLCL2, individual compound, read-out: Inh % on resistant WSU-DLCL2 cell line (AVG)
Protocol: as §1, §2

[4] = system: DoHH-2 cell line; assay: Inhibition assay of tumor cell activity (cell viability), DoHH-2; type: cell-based; details: Homo sapiens, individual compound, read-out: Inh % on DoHH-2 cell line (AVG)
Protocol: as §1, §2

[5] = system: adjuvant-induced arthritis; assay: Adjuvant-induced arthritis (AA/AIA) model in female Lewis rats (paw volume, clinical score, histopathology); type: in vivo, rat; set-up: Pathological score (Mean ± SEM), Inflammatory cell infiltration / Pathological score (Mean ± SEM), Pannus growth / Pathological score (Mean ± SEM), Cartilage injury / Pathological score (Mean ± SEM), Bone resorption / Pathological score (Mean ± SEM), Total: scale not given here; details: for Paw volume (mL), Mean: 3 mg/kg BID (positive control)
Description: Adjuvant-Induced Arthritis AA Model: […] All rats except the normal group were immunized with complete Freund's adjuvant (CFA) subcutaneously at the left hind paw to induce arthritis at day 0. […] The treatments were given orally for 3 consecutive weeks. The body weight, paw volume and clinical score were monitored every other day after day 13 throughout the course of the study. At the terminal point, right hind paws were collected for histopathology analysis with H.E. staining.

[6] = system: collagen induced arthritis; assay: Collagen-induced arthritis (CIA) model in male DBA/1 mice (clinical score, histopathology); type: in vivo, mouse; set-up: Clinical Score (Mean) / Pathological score (Mean ± SEM), Inflammatory cell infiltration / Pathological score (Mean ± SEM), Pannus growth / Pathological score (Mean ± SEM), Cartilage injury / Pathological score (Mean ± SEM), Bone resorption / Pathological score (Mean ± SEM), Total: scale not given here; details: CIA study; for Clinical Score (Mean): Dexamethasone 0.2 mg/kg
Protocol: Collagen-Induced Arthritis (CIA) Model: The combination of Compounds 3 and 12 was evaluated in collagen induced arthritis (CIA) mouse model in Male DBA/1 mice. The animals were divided into 8 groups, including a normal, a vehicle, […] treatment groups: […] On the same day, immunized mice were randomly divided into 7 groups: […] The treatments were given orally for 2 consecutive weeks. Body weight and clinical score were monitored through the study (recorded three times a week started after second immunization). At the end of the study, animals were euthanized and both hind paws were collected for histopathology analysis.

[7] = system: WSU-DLCL2 xenograft; details: gavage to mice, 480 mg/kg/day, Knutson et al., cited from earlier work
[8] = Left hind paw, Dexamethasone 0.2 mg/kg QD
[9] = Right hind paw, Dexamethasone 0.2 mg/kg QD

Nc1cccc2c1CN(C1CCC(=O)NC1=O)C2=O (stereo not shown) [Compound 16, Lenalidomide]
inhibition at 0.01 µM ([1]; 0.01 uM (10 nM)): 7.43% | inhibition at 0.1 µM ([1]; 0.1 uM (100 nM)): 21% | inhibition at 1 µM ([1]; 1 uM (1,000 nM)): 94.2% | Antitumor effect (%) ([2]; FIG. 4, 21 days, 10 mg/kg): 16% | Antitumor effect (%) ([2]; FIG. 4, 21 days, 30 mg/kg): 42%

CC1(C)CCC(CN2CCN(c3ccc(C(=O)NS(=O)(=O)c4ccc(NCC5CCOCC5)c([N+](=O)[O-])c4)c(Oc4cnc5[nH]ccc5c4)c3)CC2)=C(c2ccc(Cl)cc2)C1 [Compound 12, Venetoclax]
inhibition at 0.01 µM ([1]; 0.01 uM (10 nM)): 11.1% | inhibition at 0.1 µM ([1]; 0.1 uM (100 nM)): 18.8% | inhibition at 1 µM ([1]; 1 uM (1,000 nM)): 37.6% | Inh % on TMD-8 cell line (AVG) ([1]; 0.01 uM (10 nM)): 11.12% | Inh % on TMD-8 cell line (AVG) ([1]; 0.1 uM (100 nM)): 18.81% | Inh % on TMD-8 cell line (AVG) ([1]; 1 uM (1,000 nM)): 37.55% | Antitumor effect (%) ([2]; FIG. 12, 14 days, 5 mg/kg): 12%

Cc1cc(O)c(-c2ccc([C@@H](C)CN(C)C)cc2)c2c1[nH]c(=O)c1sccc12 [Compound 13, (R)-9-(4-(1-(dimethylamino)propan-2-yl)phenyl)-8-hydroxy-6-methylthieno[2,3-c]quinolin-4(5H)-one]
inhibition at 0.01 µM ([1]; 0.01 uM (10 nM)): 8.71% | inhibition at 0.1 µM ([1]; 0.1 uM (100 nM)): 49.1% | inhibition at 1 µM ([1]; 1 uM (1,000 nM)): 101%

N#CC[C@H](C1CCCC1)n1cc(-c2ncnc3[nH]ccc23)cn1 [Compound 10, Ruxolitinib]
inhibition at 0.01 µM ([1]; 0.01 uM (10 nM)): 0.05% | inhibition at 0.1 µM ([1]; 0.1 uM (100 nM)): -5.53% | inhibition at 1 µM ([1]; 1 uM (1,000 nM)): 101%

CO[C@H]1C[C@@H]2CC[C@@H](C)[C@@](O)(O2)C(=O)C(=O)N2CCCC[C@H]2C(=O)O[C@H]([C@H](C)C[C@@H]2CC[C@@H](O)[C@H](OC)C2)CC(=O)[C@H](C)/C=C(\C)[C@@H](O)[C@@H](OC)C(=O)[C@H](C)C[C@H](C)/C=C/C=C/C=C/1C [Compound 17, Rapamycin]
inhibition at 0.01 µM ([1]; 0.01 uM (10 nM)): 58.7% | inhibition at 0.1 µM ([1]; 0.1 uM (100 nM)): 59.8% | inhibition at 1 µM ([1]; 1 uM (1,000 nM)): 65%

CN(Cc1cnc2nc(N)nc(N)c2n1)c1ccc(C(=O)N[C@@H](CCC(=O)O)C(=O)O)cc1 [Compound 18, Methotrexate]
Inh % on TMD-8 cell line (AVG) ([1]; 0.01 uM (10 nM)): −8.45% | Inh % on TMD-8 cell line (AVG) ([1]; 0.1 uM (100 nM)): 32.04% | Inh % on TMD-8 cell line (AVG) ([1]; 1 uM (1,000 nM)): 39.55%

CO[C@H]1C[C@@H]2CC[C@@H](C)[C@@](O)(O2)C(=O)C(=O)N2CCCC[C@H]2C(=O)O[C@H]([C@H](C)C[C@@H]2CC[C@@H](OCCO)[C@H](OC)C2)CC(=O)[C@H](C)/C=C(\C)[C@@H](O)[C@@H](OC)C(=O)[C@H](C)C[C@H](C)/C=C/C=C/C=C/1C [Compound 14, Everolimus]
tumor disappearance ([2]; TMD-8 mice model, text): tumor disappearance

Nc1cccc2c1C(=O)N(C1CCC(=O)NC1=O)C2=O (stereo not shown) [Compound 15, Pomalidomide]
inhibition at 0.01 µM ([1]; 0.01 uM (10 nM)): 45.1% | inhibition at 0.1 µM ([1]; 0.1 uM (100 nM)): 61.7% | inhibition at 1 µM ([1]; 1 uM (1,000 nM)): 76.8% | inhibition at 0.01 µM ([3]; 0.01 uM): -14.5% | inhibition at 0.1 µM ([3]; 0.1 uM): -8.32% | inhibition at 1 µM ([3]; 1 uM): 46.6% | inhibition at 0.01 µM ([4]; 0.01 uM): -7.95% | inhibition at 0.1 µM ([4]; 0.1 uM): 6.75% | inhibition at 1 µM ([4]; 1 uM): 51.3% | Antitumor effect (%) ([2]; FIG. 2, 14 days, 30 mg/kg): 24% | Antitumor effect (%) ([2]; FIG. 3, 21 days, 10 mg/kg): −8%

C[C@@H]1CCN(C(=O)CC#N)C[C@@H]1N(C)c1ncnc2[nH]ccc12 [Compound 11, Tofactinib]
Inh % on TMD-8 cell line (AVG) ([1]; 0.01 uM (10 nM)): 6.02% | Inh % on TMD-8 cell line (AVG) ([1]; 0.1 uM (100 nM)): 1.31% | Inh % on TMD-8 cell line (AVG) ([1]; 1 uM (1,000 nM)): 6.66% | Paw volume (mL), Mean ([5]; Day 0): 1.00 mL | Paw volume (mL), Mean ([5]; Day 17): 1.54*** mL | Paw volume (mL), Mean ([5]; Day 26): 1.37*** mL | Paw volume (mL), Mean ([5]; Day 28): 1.33*** mL | Paw volume (mL), Mean ([5]; Day 31): 1.23*** mL | Paw volume (mL), Mean ([5]; Day 33): 1.23*** mL | Pathological score (Mean ± SEM), Bone resorption ([5]; AA study, 11, 3 mg/kg): 0.5 ± 0.22 | Pathological score (Mean ± SEM), Cartilage injury ([5]; AA study, 11, 3 mg/kg): 0.2 ± 0.20 | Pathological score (Mean ± SEM), Inflammatory cell infiltration ([5]; AA study, 11, 3 mg/kg): 1.9 ± 0.18 | Pathological score (Mean ± SEM), Pannus growth ([5]; AA study, 11, 3 mg/kg): 0.4 ± 0.22 | Pathological score (Mean ± SEM), Total ([5]; AA study, 11, 3 mg/kg): 3.0 ± 0.73

CC[C@H](Nc1ncnc2[nH]cnc12)c1nc2cccc(F)c2c(=O)n1-c1ccccc1 [Compound 8, Idelalisib]
inhibition at 0.01 µM ([1]; 0.01 uM (10 nM)): 29.4% | inhibition at 0.1 µM ([1]; 0.1 uM (100 nM)): 48.8% | inhibition at 1 µM ([1]; 1 uM (1,000 nM)): 68.9% | inhibition at 10 µM [1]: 87.7% | inhibition at 100 µM [1]: 96.8% | Antitumor effect (%) ([2]; FIG. 3, 21 days, 10 mg/kg): 26% | Antitumor effect (%) ([2]; FIG. 12, 14 days, 10 mg/kg): 48%

[2H]/C=C\C(=O)N1CC[C@@H](n2nc(-c3ccc(Oc4c(F)c(F)cc(F)c4F)cc3F)c3c(N)ncnc32)C1 [Compound 7]
inhibition at 0.01 µM ([1]; 0.01 uM (10 nM)): 33.9% | inhibition at 0.1 µM ([1]; 0.1 uM (100 nM)): 58.7% | inhibition at 1 µM ([1]; 1 uM (1,000 nM)): 58.6% | inhibition at 10 µM [1]: 62.9% | inhibition at 100 µM [1]: 99.3%

C[C@@H]1C[C@H]2[C@@H]3CCC4=CC(=O)C=C[C@]4(C)[C@@]3(F)[C@@H](O)C[C@]2(C)[C@@]1(O)C(=O)CO [Dexamethasone]
Pathological score (Mean ± SEM), Total ([6]; Dexamethasone 0.2 mg/kg QD): 0.00 ± 0.00 | Pathological score (Mean ± SEM), Bone resorption [6, 8]: 0.00 ± 0.00 | Pathological score (Mean ± SEM), Cartilage injury [6, 8]: 0.00 ± 0.00 | Pathological score (Mean ± SEM), Inflammatory cell infiltration [6, 8]: 0.00 ± 0.00 | Pathological score (Mean ± SEM), Pannus growth [6, 8]: 0.00 ± 0.00 | Pathological score (Mean ± SEM), Bone resorption [6, 9]: 0.00 ± 0.00 | Pathological score (Mean ± SEM), Cartilage injury [6, 9]: 0.00 ± 0.00 | Pathological score (Mean ± SEM), Inflammatory cell infiltration [6, 9]: 0.00 ± 0.00 | Pathological score (Mean ± SEM), Pannus growth [6, 9]: 0.00 ± 0.00 | Clinical Score (Mean) ([6]; day 21): 0.00 | Clinical Score (Mean) ([6]; day 32): 0.60*** | Clinical Score (Mean) ([6]; day 39): 0.40*** | Clinical Score (Mean) ([6]; day 42): 0.20***

CCN(c1cc(-c2ccc(CN3CCOCC3)cc2)cc(C(=O)NCc2c(C)cc(C)[nH]c2=O)c1C)C1CCOCC1 [EPZ-6438]
effect against the WSU-DLCL tumor [7]: achieved a similar effect | effect against the WSU-DLCL tumor ([7]; listed as EZ-6438): inhibited tumor growth

C=CC(=O)N1CCC[C@@H](n2nc(-c3ccc(Oc4ccccc4)cc3)c3c(N)ncnc32)C1 [Compound 9, Ibrutinib]
inhibition at 0.01 µM ([1]; 0.01 uM (10 nM)): 56.2% | inhibition at 0.1 µM ([1]; 0.1 uM (100 nM)): 59.1% | inhibition at 1 µM ([1]; 1 uM (1,000 nM)): 66.1% | inhibition at 10 µM [1]: 81.4% | inhibition at 100 µM [1]: 99.9%
